Columns and labels:
[1] = system: AsPo1; test: Effect of PDTC on cell proliferation (IC50); assay type: cell-based; conditions: Pancreatic carcinoma cells, read-out: IC50 required to inhibit cellular proliferation or induce apoptosis
Description: (§1) The effect of PDTC on cellular proliferation or apoptosis was evaluated in a number of normal and cancer cell lines. The IC50 was measured as the concentration of PDTC that inhibited cellular proliferation.

[2] = system: BxPc3; test: Effect of PDTC on cell proliferation (IC50); assay type: cell-based; conditions: Homo sapiens, BXPC-3, Pancreatic carcinoma cells, read-out: IC50 required to inhibit cellular proliferation or induce apoptosis
Description: as §1

[3] = system: Hs746T; test: Effect of PDTC on cell proliferation (IC50); assay type: cell-based; conditions: Homo sapiens, Gastric carcinoma cells, read-out: IC50 required to inhibit cellular proliferation or induce apoptosis
Description: as §1

[4] = system: Keratinocytes; test: Effect of PDTC on cell proliferation (IC50); assay type: cell-based; conditions: Homo sapiens, Keratinocyte, Normal cells, read-out: IC50 required to inhibit cellular proliferation or induce apoptosis
Description: as §1

[5] = system: MCF-10HRas; test: Effect of PDTC on cell proliferation (IC50); assay type: cell-based; conditions: Breast carcinoma cell, Breast carcinoma cells, read-out: IC50 required to inhibit cellular proliferation or induce apoptosis
Description: as §1

[6] = system: MCF-10WT; test: Effect of PDTC on cell proliferation (IC50); assay type: cell-based; conditions: Breast carcinoma cell, Breast carcinoma cells, read-out: IC50 required to inhibit cellular proliferation or induce apoptosis
Description: as §1

[7] = system: MCF-7; test: Effect of PDTC on cell proliferation (IC50); assay type: cell-based; conditions: Homo sapiens, MCF7, Breast carcinoma cells, read-out: IC50 required to inhibit cellular proliferation or induce apoptosis
Description: as §1

[8] = system: MDA MB-468; test: Effect of PDTC on cell proliferation (IC50); assay type: cell-based; conditions: Homo sapiens, Breast carcinoma cells, read-out: IC50 required to inhibit cellular proliferation or induce apoptosis
Description: as §1

[9] = system: MDA-MB231; test: Effect of PDTC on cell proliferation (IC50); assay type: cell-based; conditions: Homo sapiens, MDA-MB-231, Breast carcinoma cells, read-out: IC50 required to inhibit cellular proliferation or induce apoptosis
Description: as §1

[10] = system: N-87; test: Effect of PDTC on cell proliferation (IC50); assay type: cell-based; conditions: Gastric carcinoma cells, read-out: IC50 required to inhibit cellular proliferation or induce apoptosis
Description: as §1

[11] = system: Non-transformed rat intestinal epithelial cells; test: Effect of PDTC on cell proliferation (IC50); assay type: cell-based; conditions: Normal cells, read-out: IC50 required to inhibit cellular proliferation or induce apoptosis
Description: as §1

[12] = system: PANC-1; test: Effect of PDTC on cell proliferation (IC50); assay type: cell-based; conditions: Homo sapiens, Pancreatic carcinoma cells, read-out: IC50 required to inhibit cellular proliferation or induce apoptosis
Description: as §1

[13] = system: Primary colonocytes; test: Effect of PDTC on cell proliferation (IC50); assay type: cell-based; conditions: Homo sapiens, Normal cells, read-out: IC50 required to inhibit cellular proliferation or induce apoptosis
Description: as §1

[14] = system: Primary mammary epithelia; test: Effect of PDTC on cell proliferation (IC50); assay type: cell-based; conditions: Homo sapiens, Normal cells, read-out: IC50 required to inhibit cellular proliferation or induce apoptosis
Description: as §1

[15] = system: Saos-2; test: Effect of PDTC on cell proliferation (IC50); assay type: cell-based; conditions: Homo sapiens, Osteosarcoma, read-out: IC50 required to inhibit cellular proliferation or induce apoptosis
Description: as §1

[16] = system: Primary colonocytes; test: DNA fragmentation after PDTC treatment; assay type: cell-based, human; conditions: 70 μM
[17] = system: Wild Type p53 HCA-7; test: DNA fragmentation after PDTC treatment; assay type: cell-based; conditions: 70 μM
[18] = system: HCT 116; test: DNA fragmentation after PDTC treatment; assay type: cell-based, human; conditions: 70 μM
[19] = system: Mutant p53 HCT 15; test: DNA fragmentation after PDTC treatment; assay type: cell-based, human; conditions: 70 μM
[20] = system: DLD-1; test: DNA fragmentation after PDTC treatment; assay type: cell-based; conditions: 70 μM
[21] = system: DKO-3; test: DNA fragmentation after PDTC treatment; assay type: cell-based; conditions: 70 μM
[22] = system: HCT 116 cells; test: Soft-agar colony formation (anchorage-independent growth); conditions: Homo sapiens, HCT-116, 240 h, read-out: approximate IC50 in soft agar
Description: (§2) FIG. 1A is a graph of the concentration of PDTC versus soft-agar forming units×10^6 HCT 15 and HCT 116 cells (as a percent of control). […] Soft-agar colony formation was measured by seeding HCT 116 or HCT 15 cells in soft agar supplemented with either medium alone (control), or increasing concentrations of pyrrolidinedithiocarbamate (25–200 μM) or vitamin E (0.1–10 mM). Colonies were scored at the end of 10 days incubation at 37° C. Values are representative of three experiments carried out in quadruplicate.
(§3) HCT 116 and HCT 15 cells were seeded in soft agar as described above containing increasing concentrations of either 5-FU (5×10^−8 to 5×10^−5 M) or doxorubicin (1×10^−9 to 1×10^−6 M), in the presence or absence of pyrrolidinedithiocarbamate (70 μM) or vitamin E (3 mM). Colonies were scored after 10 days and IC50 values were calculated as the concentration of 5-FU or doxorubicin required to reduce basal colony formation by 50% (±s.e.m.). Values are representative of three experiments carried out in quadruplicate.

[23] = system: HCT 15 cells; test: as above; conditions: Homo sapiens, HCT-15, 240 h, read-out: approximate IC50 in soft agar
Description: as §2, §3

[24] = system: HCT 15-derived tumors; test: HCT 15 tumor xenografts in athymic mice; assay type: in vivo; conditions: HCT 15-derived tumors, after 3 weeks of single agent treatment, before cross-over
Description: HCT 15-derived tumors were generated as described above. Animals were then treated with pyrrolidinedithiocarbamate, in the presence or absence of 5-FU, for 3 weeks. At this point, treatments were discontinued in animals receiving the combined treatment of pyrrolidinedithiocarbamate and 5-FU for 2 months. All other treatment groups received both 5-FU and pyrrolidinedithiocarbamate for the remaining 3 weeks.
Male athymic Balb/c nu/nu mice were obtained from the Harlan Sprague-Dawley Company at 4–6 weeks of age and were quarantined for at least 2 weeks before the study. […] HCT 116 and HCT 15 CRC cell lines were grown in DMEM supplemented with 10% FBS as described above. Cells were harvested through two consecutive trypsinizations, centrifuged at 300 g for 5 minutes, washed twice, and resuspended in sterile phosphate buffered saline. One ×10^6 cells in 0.2 ml were injected subcutaneously between the scapula of 7- to 10-week-old male nude mice.
Tumor volumes were estimated weekly by measuring the maximal length, width, and height. Once tumors reached a mean size of 120 to 150 mm^3, animals received either weekly i.p. injections of pyrrolidinedithiocarbamate (70 μM) or vitamin E (3 mM), 5-FU (40 mg/kg) or saline, or a combination of pyrrolidinedithiocarbamate or vitamin E and 5-FU or 6 weeks. In cross-over experiments, animals received the above treatments for three weeks (with the exception of vitamin E), and then were crossed-over to either the combination treatment of pyrrolidinedithiocarbamate and 5-FU (saline, pyrrolidinedithiocarbamate or 5-FU alone) or discontinued treatment pyrrolidinedithiocarbamate and 5-FU) for the remaining three weeks of the experiment. […] Tumor volumes were recorded weekly until termination of the study.
Tumor tissues were fixed overnight in 4% (v/v) paraformaldehyde and embedded in paraffin according to standard histological procedures. […] The proliferative index (BrDU) and the apoptotic index (TUNEL) were estimated by the percentage of cells scored under a microscope at 200-fold magnification.

[25] = system: murine small intestine and the murine colon; conditions: mouse, in vivo

S=C(S)N1CCCC1 [PDTC, pyrrolidinedithiocarbamate]
IC50 [1]: 70 µM
IC50 [2]: 100 µM
IC50 [3]: 35 µM
IC50 [4]: 600 µM
IC50 [5]: 5 µM
IC50 [6]: 5 µM
IC50 [7]: 13 µM
IC50 [8]: 20 µM
IC50 [9]: 10 µM
IC50 [10]: 40 µM
IC50 [11]: 450 µM
IC50 [12]: 75 µM
IC50 [13]: 500 µM
IC50 [14]: 650 µM
IC50 [15]: 10 µM
DNA Fragmentation after PDTC Treatment ([16]; 3 h): 101 ± 10 % Control
DNA Fragmentation after PDTC Treatment ([16]; 6 h): 109 ± 9 % Control
DNA Fragmentation after PDTC Treatment ([16]; 12 h): 107 ± 10 % Control
DNA Fragmentation after PDTC Treatment ([16]; 24 h): 130 ± 16 % Control
DNA Fragmentation after PDTC Treatment ([17]; 3 h): 111 ± 13 % Control
DNA Fragmentation after PDTC Treatment ([17]; 6 h): 126 ± 17 % Control
DNA Fragmentation after PDTC Treatment ([17]; 12 h): 154 ± 19 % Control
DNA Fragmentation after PDTC Treatment ([17]; 24 h): 302 ± 35 % Control
DNA Fragmentation after PDTC Treatment ([18]; 3 h): 108 ± 11 % Control
DNA Fragmentation after PDTC Treatment ([18]; 6 h): 131 ± 21 % Control
DNA Fragmentation after PDTC Treatment ([18]; 12 h): 198 ± 23 % Control
DNA Fragmentation after PDTC Treatment ([18]; 24 h): 367 ± 49 % Control
DNA Fragmentation after PDTC Treatment ([19]; 3 h): 145 ± 12 % Control
DNA Fragmentation after PDTC Treatment ([19]; 6 h): 259 ± 18 % Control
DNA Fragmentation after PDTC Treatment ([19]; 12 h): 673 ± 34 % Control
DNA Fragmentation after PDTC Treatment ([19]; 24 h): 979 ± 34 % Control
DNA Fragmentation after PDTC Treatment ([20]; 3 h): 213 ± 17 % Control
DNA Fragmentation after PDTC Treatment ([20]; 6 h): 296 ± 21 % Control
DNA Fragmentation after PDTC Treatment ([20]; 12 h): 712 ± 34 % Control
DNA Fragmentation after PDTC Treatment ([20]; 24 h): 876 ± 46 % Control
DNA Fragmentation after PDTC Treatment ([21]; 3 h): 223 ± 11 % Control
DNA Fragmentation after PDTC Treatment ([21]; 6 h): 478 ± 16 % Control
DNA Fragmentation after PDTC Treatment ([21]; 12 h): 896 ± 23 % Control
DNA Fragmentation after PDTC Treatment ([21]; 24 h): 1116 ± 54 % Control
IC50 [22]: ~70 µM
IC50 [23]: ~70 µM
tumor size [24]: 1325+210 mm^3
toxicity of 5-FU [25]: substantially reduces the toxicity of 5-FU

— patent US7071158B2, “Antioxidant enhancement of therapy for hyperproliferative conditions” (Atherogenics, Inc., priority 1997, dated 2006)
